We go through eleven molecules from ChEMBL document CHEMBL1201862, “PubChem BioAssay data set” (2004).

Test in all cases: NCI tumour cell line growth inhibition, 48 h
Experiment [1] deals with 786-0.
The test system of experiment [2] is A498.
Experiment [3] has as its system COLO 205.
Experiment [4] deals with EKVX.
The test system of experiment [5] is HCT-15.
Experiment [6] deals with IGROV-1.
Experiment [7] relates to K562.
Experiment [8] concerns KM12.
The test system of experiment [9] is Malme-3M.
Experiment [10] concerns OVCAR-5.
Experiment [11] relates to RPMI-8226.
The subject of experiment [12] is SF-268.
The subject of experiment [13] is SF-295.
Experiment [14] relates to SF-539.
Experiment [15] concerns SK-OV-3.
The test system of experiment [16] is SNB-19.
For experiment [17], the system named is SW-620.
Experiment [18] relates to UACC-257.
In experiment [19] the test system is MOLT-4.

Structures are written as SMILES.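 Cells were grown in 96-well plates and exposed to each compound for 48 hours at five concentrations; endpoints were interpolated linearly between bracketing concentrations, or set to the highest concentration if not reached. Here, GI50 denotes the concentration required for 50% inhibition of growth.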 Active and inactive are the calls of the source. Cut-off read from the data, not from the text of the source: active = GI50 up to about 1.1 µM and inactive = higher. Where only a bound is given, the exact number is not on record here.

Take `O=c1cc2ccccc2nn1Cc1cccc(Cl)c1`: the GI50 was > 100 µM (inactive) in [1]; > 100 µM (inactive) in experiment [2]; > 100 µM (inactive) in experiment [3]; > 100 µM (inactive) in experiment [4]; 99.5 µM in experiment [5]; > 100 µM (inactive) in [6]. The GI50 in [7] is 32.4 µM (inactive); in experiment [8], > 100 µM (inactive); in experiment [9], > 100 µM (inactive); in experiment [10] it was > 100 µM (inactive); in [11] it was 30.7 µM (inactive); in experiment [12], 90.2 µM (inactive). Further, the GI50 was > 100 µM (inactive) in experiment [13]; > 100 µM (inactive) in experiment [14]; > 100 µM (inactive) in [15]; > 100 µM (inactive) in experiment [16]; 92.5 µM (inactive) in experiment [17]; > 100 µM (inactive) in experiment [18].
For the molecule `CC(=O)OC1(C#N)CC2OC1C1C2N1C(=O)OC(C)(C)C` (stereo not given), the GI50 in [1] is > 100 µM (inactive); in experiment [2] it was > 100 µM (inactive); in experiment [3], > 100 µM (inactive); in experiment [4], > 100 µM (inactive); in experiment [5], greater than 100 µM; in [6], > 100 µM (inactive). Moreover, the GI50 in experiment [7], in experiment [19], in experiment [9], in experiment [10], in [11] and in [12] was > 100 µM (inactive) throughout. Further, the GI50 in experiment [14], in [15], in experiment [16] and in [17] was > 100 µM (inactive) in each case.
For `O=C(Cc1nc2ccccc2s1)Nc1ccc(Cl)cc1`, the GI50 was > 100 µM (inactive) in experiment [1]; > 100 µM (inactive) in experiment [2]; > 100 µM (inactive) in experiment [3]; > 100 µM (inactive) in experiment [4]; > 100 µM (inactive) in experiment [6]; 38.9 µM (inactive) in experiment [7]. In addition, the GI50 in experiment [8] is 78.5 µM (inactive); in [19] it was > 100 µM (inactive); in experiment [9] it was > 100 µM (inactive); in experiment [10], > 100 µM (inactive); in experiment [12], > 100 µM (inactive); in experiment [13], 55.6 µM (inactive). The GI50 in [14], in experiment [15], in [16], in [17] and in [18] was > 100 µM (inactive) each time.
As to `Fc1ccccc1C1SCc2nc3ccccc3n21` (stereo not given), the GI50 in experiment [1] was > 100 µM (inactive); in experiment [2] it was 9.62 µM (inactive); in experiment [3] it was 77.3 µM (inactive); in [4], 37.5 µM (inactive); in experiment [6], 60.5 µM (inactive); in [7], 16.3 µM (inactive). The GI50 was 89.9 µM (inactive) in experiment [8]; 30.4 µM (inactive) in [19]; 55.3 µM (inactive) in [9]; 41.5 µM (inactive) in experiment [10]; 25.5 µM (inactive) in experiment [11]; 69.8 µM (inactive) in experiment [12]. Besides, the GI50 in experiment [13] was 41.8 µM (inactive); in [14], > 100 µM (inactive); in [15], 34.8 µM (inactive); in experiment [16] it was 86.7 µM (inactive); in [17], > 100 µM (inactive); in experiment [18] it was 33.7 µM (inactive).
For the molecule `CCN(CC)CCCC(C)Nc1c(Sc2cnc3cc(Cl)ccc3c2NC(C)CCCN(CC)CC)cnc2cc(Cl)ccc12` (stereo not given), the GI50 in experiment [1] was 1.54 µM (inactive); in experiment [2] it was 1.85 µM (inactive); in experiment [3], 1.46 µM (inactive); in [5], 1.72 µM; in experiment [6], 1.87 µM (inactive); in experiment [7] it was 1.55 µM (inactive). The GI50 in experiment [8] was 2.07 µM (inactive); in experiment [19] it was 2.37 µM (inactive); in experiment [9] it was 2.13 µM (inactive); in [10], 1.73 µM (inactive); in experiment [11] it was 1.91 µM (inactive); in experiment [12], 2.02 µM (inactive). Besides, the GI50 in experiment [15] was 1.66 µM (inactive); in experiment [17], 1.58 µM (inactive); in experiment [18] it was 2.03 µM (inactive).
Consider `COc1ccc2c3c1C(=O)CCCC3CO2` (stereo not given), for which the GI50 in experiment [1] is > 100 µM (inactive); in [2], > 100 µM (inactive); in experiment [3], > 100 µM (inactive); in [5], greater than 100 µM; in experiment [6], > 100 µM (inactive); in experiment [7], > 100 µM (inactive). The GI50 in experiment [8], in experiment [19], in experiment [9], in experiment [10], in experiment [11] and in experiment [12] was > 100 µM (inactive) in each case. Moreover, the GI50 in [13], in experiment [14], in experiment [15], in experiment [16], in [17] and in experiment [18] was > 100 µM (inactive) in each case.
As for `COc1nc(NC2OC(COC(C)=O)C(OC(C)=O)C(OC(C)=O)C2OC(C)=O)c(/N=C(\C)C(C)=O)c(=O)n1C` (stereo not given), the GI50 in experiment [1] is > 100 µM (inactive); in experiment [2] it was > 100 µM (inactive); in experiment [3] it was > 100 µM (inactive); in experiment [4] it was > 100 µM (inactive); in experiment [5] it was greater than 100 µM; in experiment [6] it was > 100 µM (inactive). The GI50 in experiment [7], in experiment [8], in [19], in experiment [9], in [10] and in experiment [11] was > 100 µM (inactive) in each case. In addition, the GI50 in [13], in [14], in experiment [15], in [16], in experiment [17] and in [18] was > 100 µM (inactive) in each case.
As for `C[N+]1(C)CCCC1C(=O)[O-]` (stereo not given), the GI50 was > 100 µM (inactive) in experiment [1]; > 100 µM (inactive) in experiment [2]; > 100 µM (inactive) in [3]; > 100 µM (inactive) in [4]; greater than 100 µM in [5]; > 100 µM (inactive) in [6]. Moreover, the GI50 in experiment [7], in [8], in experiment [19], in [9], in [11] and in experiment [12] was > 100 µM (inactive) each time. For the same molecule, the GI50 in experiment [13], in experiment [14], in [15], in experiment [16], in experiment [17] and in experiment [18] was > 100 µM (inactive) each time.
For the molecule `O=c1[nH]c(=O)n(C2CC(O)C(CO)O2)cc1/C=C/Br` (stereo not given), the GI50 in experiment [1], in experiment [2], in [4], in [6], in experiment [7] and in [8] was > 100 µM (inactive) throughout. Besides, the GI50 in experiment [19], in [9], in experiment [10], in [12], in experiment [13] and in [14] was > 100 µM (inactive) each time. Further, the GI50 in [15], in experiment [16], in experiment [17] and in experiment [18] was > 100 µM (inactive) each time.
`O=C(Nc1c(O)[nH]c(=S)[nH]c1=O)c1ccccn1`: the GI50 in [1] is > 100 µM (inactive); in experiment [2], > 100 µM (inactive); in [3] it was > 100 µM (inactive); in experiment [5], greater than 100 µM; in [6], > 100 µM (inactive); in experiment [7], > 100 µM (inactive). Further, the GI50 in [8], in [19], in experiment [9], in experiment [10], in [11] and in experiment [12] was > 100 µM (inactive) throughout. Further, the GI50 in experiment [13], in experiment [14], in experiment [15], in [16], in [17] and in experiment [18] was > 100 µM (inactive) each time.
Regarding `O=C(c1c(O)cc(O)cc1O)C1Cc2ccccc21` (stereo not given), the GI50 in [1] is 31.8 µM (inactive); in experiment [2], > 100 µM (inactive); in [3] it was > 100 µM (inactive); in experiment [5], greater than 100 µM; in [6] it was > 100 µM (inactive); in experiment [7] it was 68.1 µM (inactive). Also, the GI50 in experiment [8] is > 100 µM (inactive); in experiment [19] it was > 100 µM (inactive); in experiment [9] it was > 100 µM (inactive); in [10], > 100 µM (inactive); in experiment [11] it was 58.1 µM (inactive); in [12], 53.1 µM (inactive). The GI50 in experiment [13] is 42.3 µM (inactive); in [14] it was 32.2 µM (inactive); in experiment [15], > 100 µM (inactive); in [16], 64 µM (inactive); in experiment [17], > 100 µM (inactive); in experiment [18], > 100 µM (inactive).
